The text below walks through data of ChEMBL document CHEMBL3091352, “Synthesis and pharmacological evaluation of novel bisindolylalkanes analogues” (Bioorg Med Chem, 2013).

The species entered for the test is Homo sapiens. Kind of test: Inhibition of human DNA topoisomerase-2 at 100 uM after 30 mins by agarose gel electrophoresis.

SMILES strings stand for the structures.

Compound `COc1cc([C@@H]2c3cc4c(cc3[C@@H](O[C@@H]3O[C@@H]5CO[C@@H](C)O[C@H]5[C@H](O)[C@H]3O)[C@H]3COC(=O)[C@H]23)OCO4)cc(OC)c1O` yielded an inhibition of 90.3%.

As usually defined, the inhibition is the relative decrease from the control value, in per cent. Read a high inhibition as a strong effect.
